Several values for one entry are separate records, joined by “and”; a condition that tells them apart may be missing. Equal entries are not always repeated. Structures can show the parent of a compound that is named as a salt. Where two headings read alike, the source gives them in different places. Where only a bound is given, the exact number is not on record here.

One assay has as its system 5-HT-induced bradycardia. Nature of the assay: Bezold-Jarisch reflex (5-HT-induced bradycardia) in pentobarbital anesthetized mice. Format: in vivo. How it is done:
(§1) 5-HT3 antagonism can be determined by the radioligand receptor binding assay as described herein and in the in vivo Bezold-Jarisch reflex procedure.
The test sample is administered i.p. (mg/kg) to a group of 3 mice. […] A greater than 50 percent (>50) reduction in the bradycardic response relative to vehicle-treated control mice is considered significant.
This method has been described by Saxena, P. R. and Lawang, A., Arch. Int. Pharmacodyn., 277:235-252, 1985.

The target in the next assay is T1, 5-HT3 (Mus musculus, UniProt P23979).
T1 construct: NG108-15 Cells; endogenous in cells; host or cells: NG108-15 cells
T1 sequence (P23979 24-489): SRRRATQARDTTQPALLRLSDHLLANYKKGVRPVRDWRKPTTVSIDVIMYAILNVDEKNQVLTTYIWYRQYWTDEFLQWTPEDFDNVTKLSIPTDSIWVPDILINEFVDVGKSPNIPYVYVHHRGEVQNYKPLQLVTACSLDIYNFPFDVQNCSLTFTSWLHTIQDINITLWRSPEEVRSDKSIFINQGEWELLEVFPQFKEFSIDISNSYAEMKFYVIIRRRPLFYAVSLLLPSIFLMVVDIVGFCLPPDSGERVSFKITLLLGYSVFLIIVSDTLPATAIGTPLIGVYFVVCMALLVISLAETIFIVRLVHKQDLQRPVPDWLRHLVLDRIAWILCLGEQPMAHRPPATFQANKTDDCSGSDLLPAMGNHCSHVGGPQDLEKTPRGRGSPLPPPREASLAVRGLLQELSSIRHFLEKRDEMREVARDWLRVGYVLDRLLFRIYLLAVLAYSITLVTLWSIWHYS
The assay can be described thus: 5-HT3 binding, NG108-15 cells.
From the text: as §1

Another assay addresses T2, 5-HT3 receptor (Rattus norvegicus, UniProt P35563).
T2 construct: Brain cortices are obtained from male rats and a membrane fraction prepared by standard techniques; from tissue; host or cells: rat brain cortex membranes
T2 sequence (P35563 24-483): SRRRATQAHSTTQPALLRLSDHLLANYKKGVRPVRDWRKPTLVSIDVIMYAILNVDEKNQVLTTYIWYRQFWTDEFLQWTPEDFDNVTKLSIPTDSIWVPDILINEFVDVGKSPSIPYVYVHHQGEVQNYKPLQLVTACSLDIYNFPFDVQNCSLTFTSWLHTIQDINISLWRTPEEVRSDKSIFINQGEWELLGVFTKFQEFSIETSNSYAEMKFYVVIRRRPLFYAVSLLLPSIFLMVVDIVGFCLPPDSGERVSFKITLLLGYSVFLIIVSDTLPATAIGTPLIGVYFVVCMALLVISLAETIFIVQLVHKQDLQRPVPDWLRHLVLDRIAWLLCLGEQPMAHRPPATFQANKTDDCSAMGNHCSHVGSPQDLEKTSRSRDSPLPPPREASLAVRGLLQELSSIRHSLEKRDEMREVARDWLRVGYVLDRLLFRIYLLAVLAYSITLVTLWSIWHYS
Nature of the assay: [3H]-GR65630 radioligand receptor binding assay, rat brain cortex membranes. To be noted: for Hill Coefficient: 0.2 nM [3H]-GR65630. How it is done:
as §1
GR65630 binds to the 5-HT3 receptor. Brain cortices are obtained from male rats and a membrane fraction prepared by standard techniques. 0.04 mg of membrane prep is incubated with 0.2 nM [^3 H]-GR656630 for 60 minutes at 22° C. […] Membranes are filtered and washed 3 times and the filters are counted to determine [3H]-GR65630 specifically bound.*
Effect of Reference Compounds on
Kilpatrick GJ, Jones BJ and Tyers MB. Identification and distribution of 5-HT3 receptors in rat brain using radioligand binding. Nature, 330: 746-748, 1987.

Setting [1] is: several examples have two IC50 values, read-out: 5-HT3 binding: NG108-15 cells IC50.
Where [2] appears, read: Mus musculus, ip, 0.5 h, read-out: Minimum Effective Dose (MED).
[3] abbreviates: Mus musculus, ip, 0.5 h; read-out: Minimum Effective Dose (MED).

Broadly, the Ki is a measure of affinity in units of concentration, obtained from inhibition or displacement. The low end stands for higher affinity, the high end for lower affinity. As to `O=C(N[C@H]1CCN2CCC[C@@H]1C2)c1cc(Cl)cn2ccnc12` (relative stereo) [Example 1, endo-N-(1-Azabicyclo[3.3.1]nonan-4-yl)-6-chloroimidazo[1,2-a]pyridine-8-carboxamide, dihydrochloride], the “Bezold Jarisch reflex (mice); % Inhibition @ Dose (IP)” value worked out at 68% with 5-HT-induced bradycardia (1 mg/kg i.p.), 73% in the assay with 5-HT-induced bradycardia (3 mg/kg i.p.) and 87% in the assay on 5-HT-induced bradycardia (10 mg/kg i.p.). The affinity at 5-HT3 corresponds to a Ki of 137 nM.

Broadly, the IC50 is the midpoint of a concentration-inhibition curve. Turning to `O=C(N[C@H]1[C@H]2C[C@@H]3CN(C2)C[C@@H]31)c1cc(Cl)cn2ccnc12` (relative stereo) [Example 9, (±)-endo-N-(Hexahydro-1H-2,5β-methano-3aα,6aα-cyclopenta[c]pyrrol-4α-yl)-6-chloroimidazo[1,2-a]pyridine-8-carboxamide, monohydrochloride], the Ki at 5-HT3 was found to be 64 nM. For the same compound, the IC50 at 5-HT3 (setting [1]) was 16 nM and 127 nM.

Turning to `O=C(N[C@H]1[C@H]2C[C@@H]3CN(C2)C[C@@H]31)c1cccn2ccnc12` (relative stereo) [Example 10, (±)-endo-N-(Hexahydro-1H-2,5β-methano-3aα,6aα-cyclopenta[c]pyrrol-4α-yl)imidazo[1,2-a]pyridine-8-carboxamide, hydrochloride], in the assay with 5-HT-induced bradycardia (10 mg/kg i.p.), the “Bezold Jarisch reflex (mice); % Inhibition @ Dose (IP)” value was 81%. This compound returned a Ki at 5-HT3 of 122 nM. Further, on 5-HT3 (setting [1]), the IC50 was 200 nM and 243 nM.

On to `CO[C@@H]1CN(CCCOc2ccc(F)cc2)CC[C@@H]1NC(=O)c1cccn2ccnc12` (relative stereo) [Example 13, Cis-N-[[3-(4-Fluorophenoxy)propyl]-3-methoxy-4piperidinylamine]imidazo[1,2-a]pyridine-8-carboxamide], for which the “Bezold Jarisch reflex (mice); % Inhibition @ Dose (IP)” value with 5-HT-induced bradycardia (10 mg/kg i.p.) is on record as 23%.

As to `CCc1cc(C(=O)N[C@H]2[C@H]3C[C@@H]4CN(C3)C[C@@H]42)c2ccccn12` (relative stereo) [Example 15, (±)-endo-N-(Hexahydro-1H-2,5β-methano-3aα,6aα-cyclopenta[c]pyrrol-4aα-yl)-3-ethylindolizine-1-carboxamide monohydrochloride], the IC50 at 5-HT3 (setting [1]) is 26.3 nM.

Take `CCc1nc(C(=O)N[C@H]2[C@H]3C[C@@H]4CN(C3)C[C@@H]42)c2ccccn12` (relative stereo) [Example 16, (±)-endo-N-(Hexahydro-1H,2,5β-methano-3aα,6aα-cyclopenta[c]pyrrol-4α-yl)-3-ethylimidazo[1,5-a]pyridine-1-carboxamide, monohydrochloride]: the IC50 on 5-HT3 (setting [1]) came to 30 nM.

`CN1C2CCCC1CC(NC(=O)c1nn(C)c3ccccc13)C2` (stereo not shown) [BRL-43694, reference compound]: in the assay with 5-HT-induced bradycardia (setting [2]), the minimal effective dose turned out to be 0.05 mg/kg.

For `Cl.Cl.O=C(NC1CCN2CCCC1C2)c1cccn2ccnc12` (stereo not drawn) [Example 2, endo-N-(1-Azabicyclo[3.3.1]nonan-4-yl)imidazo[1,2-a]pyridine-8-carboxamide, dihydrochloride], the “Bezold Jarisch reflex (mice); % Inhibition @ Dose (IP)” value in the assay with 5-HT-induced bradycardia (5 mg/kg i.p.) is recorded as 1%; in the assay on 5-HT-induced bradycardia (10 mg/kg i.p.), 53%.

For `CN1[C@@H]2CC[C@H]1C[C@@H](NC(=O)c1cc(Cl)cn3ccnc13)C2` [Example 3, endo-N-(8-Methyl-8-azabicyclo [3.2.1]octan-3-yl)-6-chloroimidazo[1,2-a]pyridine-8-carboxamide, dihydrochloride], the Ki at 5-HT3 is 50 nM. Besides, the IC50 on 5-HT3 (setting [1]) is 19.3 nM and 99 nM.

On to `CN1[C@@H]2CC[C@H]1C[C@@H](NC(=O)c1cccn3ccnc13)C2` [Example 4, endo-N-(8-methyl-8-azabicyclo[3.2.1]octan-3-yl)imidazo [1,2-a]pyridine-8-carboxamide, hydrochloride], for which the “Bezold Jarisch reflex (mice); % Inhibition @ Dose (IP)” value is recorded as 2% with 5-HT-induced bradycardia (3 mg/kg i.p.) and 82% in the assay with 5-HT-induced bradycardia (10 mg/kg i.p.). Also, the Ki at 5-HT3 came out at 416 nM. Moreover, at 5-HT3 (setting [1]), the IC50 is 500 nM and 831 nM.

Take `CN1[C@@H]2CC[C@H]1C[C@H](NC(=O)c1cccn3ccnc13)C2` [Example 5, exo-N-(8-methyl-8-azabicyclo[3.2.1]octan-3-yl)imidazo[1,2-a]pyridine-8-carboxamide, hydrochloride]: the “Bezold Jarisch reflex (mice); % Inhibition @ Dose (IP)” value with 5-HT-induced bradycardia (10 mg/kg i.p.) is 80%. The affinity at 5-HT3 corresponds to a Ki of 314 nM. The IC50 at 5-HT3 (setting [1]) is 475 nM and 628 nM.

Compound `CN1[C@@H]2CCC[C@H]1C[C@@H](NC(=O)c1cc(Cl)cn3ccnc13)C2` [Example 6, endo-N-(9-Methyl-9-azabicyclo[3.3.1]nonan-3-yl)-6-chloroimidazo[1,2-a]pyridine-8-carboxamide hydrochloride] came in with a Ki on 5-HT3 of 4.9 nM.

For `O=C(NC1CN2CCC1CC2)c1cc(Cl)cn2ccnc12` (stereo not shown) [Example 7, N-(1-Azabicyclo[2.2.2]octan-3-yl)-6-chloroimidazo[1,2-a]pyridine-8-carboxamide dihydrochloride], the affinity on 5-HT3, expressed as Ki, was 12 nM. At 5-HT3 (setting [1]), the IC50 was 17.5 nM and 23 nM.

In the case of `O=C(NC1CN2CCC1CC2)c1cccn2ccnc12` (stereo not shown) [Example 8, N-(1-Azabicyclo[2.2.2]octan-3-yl)imidazo[1,2-a]pyridine-8-carboxamide, dihydrochloride], the “Bezold Jarisch reflex (mice); % Inhibition @ Dose (IP)” value in the assay with 5-HT-induced bradycardia (0.5 mg/kg i.p.) is recorded as 82%; in the assay with 5-HT-induced bradycardia (2.5 mg/kg i.p.), 88%; with 5-HT-induced bradycardia (5 mg/kg i.p.), 95%; with 5-HT-induced bradycardia (10 mg/kg i.p.), 100%. In addition, at 5-HT3 (read-out: 5-HT3 binding: NG108-15 cells IC50, several examples have two IC50 values), the IC50 was 70 nM.

On to `O=C(NC1C2CC3CC1CN(C3)C2)c1cc(Cl)cn2ccnc12` (stereo not drawn) [Example 11, exo-N-(1-azatricyclo[3.3.1.1^3,7]decan-4-yl)-6-chloroimidazo[1,2-a]pyridine-8-carboxamide, monohydrochloride], for which the IC50 on 5-HT3 (setting [1]) is more than 100 nM.

As for `CCN(CC)CCNC(=O)c1cccn2ccnc12` [Example 12, N-[2-(Diethylamino)ethyl]imidazo[1,2-a]pyridine-8-carboxamide], the IC50 on 5-HT3 (setting [1]) was 17 nM.

`Cc1[nH]cnc1CCC(=O)c1cn(C)c2ccccc12` [GR65630] had a Bmax on 5-HT3 receptor ([3H]-GR65630, rat cortex membranes) of 154 fmol/mg protein. Moreover, the “Specific Binding” value at 5-HT3 receptor ([3H]-GR65630, non-specific binding with 1 uM ICS 205-930) stood at 70.

On to `Cc1nccn1CC1CCc2c(c3ccccc3n2C)C1=O` (stereo not shown) [GR-38032, reference compound], for which the minimal effective dose with 5-HT-induced bradycardia (setting [3]) is 0.5 mg/kg.

In the case of `CN1[C@@H]2CC[C@H]1C[C@@H](OC(=O)c1c[nH]c3ccccc13)C2` [ICS 205-930], the “Hill Coefficient” value at 5-HT3 receptor came to 1.0.

With `c1ccc2nc(N3CCNCC3)ccc2c1` [Quipazine], on 5-HT3 receptor, the “Hill Coefficient” value turned out to be 0.86.

As to `COc1ccc2[nH]cc(C3=CCNCC3)c2c1` [RU24969], the “Hill Coefficient” value at 5-HT3 receptor stood at 1.0.

In the case of `COc1cc(N)c(Cl)cc1C(=O)NC1CN2CCC1CC2` (stereo not shown) [Zacopride], the “Hill Coefficient” value on 5-HT3 receptor is reported as 0.86.

With `COc1cc(N)c(Cl)cc1C(=O)NC1CCN(CCCOc2ccc(F)cc2)CC1OC` (stereo not shown) [cisapride, reference compound], the minimal effective dose in the assay with 5-HT-induced bradycardia (setting [3]) was 5 mg/kg.

As for `CN1CCC(=C2c3ccccc3C=Cc3ccccc32)CC1` [cyproheptadine, reference compound], the minimal effective dose in the assay with 5-HT-induced bradycardia (setting [3]) was determined as 5 mg/kg.

Turning to `O=c1[nH]c2ccccc2n1CCCN1CCC(n2c(=O)[nH]c3cc(Cl)ccc32)CC1` [domperidone, reference compound], in the assay on 5-HT-induced bradycardia (setting [2]), the minimal effective dose was more than 10 mg/kg.

Regarding `O=C(c1ccc(F)cc1)C1CCN(CCn2c(=O)[nH]c3ccccc3c2=O)CC1` [ketanserin, reference compound], in the assay with 5-HT-induced bradycardia (setting [3]), the minimal effective dose is more than 10 mg/kg.

For `CNC1(C)C2CCC(C2)C1(C)C` (stereo not shown) [mecamylamine, reference compound], the minimal effective dose in the assay with 5-HT-induced bradycardia (setting [3]) amounted to 2.5 mg/kg.

`CC[C@@H](CO)NC(=O)[C@@H]1C=C2c3cccc4c3c(cn4C)C[C@H]2N(C)C1` [methysergide, reference compound]: the minimal effective dose in the assay on 5-HT-induced bradycardia (setting [2]) is more than 10 mg/kg.

For `CCN(CC)CCNC(=O)c1cc(Cl)c(N)cc1OC` [metoclopramide, reference compound], the minimal effective dose in the assay on 5-HT-induced bradycardia (setting [2]) was 5 mg/kg.

As for `CN1[C@@H]2C[C@@H](OC(=O)[C@H](CO)c3ccccc3)C[C@H]1[C@@H]1O[C@@H]12` [scopolamine, reference compound], the minimal effective dose in the assay with 5-HT-induced bradycardia (setting [2]) was 2.5 mg/kg.
